# Laboratory results published in patent US9517231B2, “Methods and pharmaceutical compositions for the treatment of symptoms of anxiety and panic using beta adrenergic receptor antagonist and muscarinic receptor antagonist combinations” (priority 2014, dated 2016).
# Entries after “also recorded” stand apart in the source; their conditions may differ. Structures can show the parent of a compound that is named as a salt. Where two headings read alike, the source gives them in different places.
# Key:
# [1] = taste and mouth paresthesia of dose forms in humans
# [2] = oral atenolol 50 mg, oral scopolamine HBr 0.3 mg; baseline and during sauna heat; cited from earlier work
# [3] = oral atenolol 50-200 mg; ~10 bpm on placebo; cited from earlier work
# [4] = target: muscarinic acetylcholine receptors, all five human receptor subtypes; settings: cited from earlier work
# [5] = healthy volunteers, CO2 inhalation; cited from earlier work
# [6] = cited from earlier work
# [7] = oral 40 mg one hour prior to TSST
# [8] = liquid compositions, under or on the tongue
# [9] = sublingual solid dose forms, HCl
smiles,measurement,setting,value
CC(C)NCC(O)COc1ccc(CC(N)=O)cc1 (stereo not drawn) [atenolol],mouth/tongue paresthesia,[1]; sublingual solid dose forms,neither property was observed; also recorded: lacked these undesirable characteristics; also recorded: do not produce mouth paresthesia
same,taste,[1]; sublingual solid dose forms,neither property was observed; also recorded: lacked these undesirable characteristics; also recorded: do not have a taste
same,"cardiovascular effects (heart rate, blood pressure)",[2],reduced heart rate and blood pressure
same,suppresses heart rate,[3],23-24 bpm
CN1[C@@H]2C[C@@H](OC(=O)[C@H](CO)c3ccccc3)C[C@H]1[C@@H]1O[C@@H]12 [scopolamine],"cardiovascular effects (heart rate, blood pressure)",[2],essentially no effect
same,Ki,[4],0.34 to 5.3 nM
CC(C)NCC(O)COc1cccc2ccccc12 (stereo not drawn) [propranolol],mouth/tongue paresthesia,[1]; sublingual solid dose forms,Paresthesia
same,taste,[1]; sublingual solid dose forms,undesirable taste
same,heart rate,[5],significantly decreased
same,psychic anxiolytic benefit,[5],did not provide
same,BP or subjective stress,[6]; 80 mg one hour prior to TSST,did not significantly affect
same,heart rate,[6]; 80 mg one hour prior to TSST,significantly reduced
same,salivary cortisol,[6]; 80 mg one hour prior to TSST,increased
same,salivary cortisol response,[6]; daily oral 80 mg,did not affect
same,cognitive flexibility during stress,[6]; [7],enhanced
same,heart rate,[6]; [7],significantly reduced
same,systolic blood pressure,[6]; [7],reduced
CC(C)NCC(O)COc1cccc2ccccc12 (stereo not drawn) [Propranolol HCl],mouth paresthesia,[1]; [8],produces mouth paresthesia
same,taste,[1]; [8],“acidic” and “medicine” taste
same,mouth/tongue paresthesia,[1]; [9],delayed paresthesia of the tongue
same,taste,[1]; [9],“acidic” and “medicine” taste
